According to ChEMBL document CHEMBL1152444, “Terretonins E and F, inhibitors of the mitochondrial respiratory chain from the marine-derived fungus Aspergillus insuetus (#)” (J Nat Prod, 2009):
Activity calls are given as the source filed them. The rule behind the calls is not given here.

Target: not listed separately
Assay: (§1) Inhibition of NADH oxidase in beef heart submitochondrial particles by end-window spectrophotometry
Parameters: species or system Bos taurus
In the case of C=CC(C)(C)c1[nH]cnc1/C=C1/NC(=O)[C@H](C(C)C)NC1=O [AURANTIAMINE], the IC50 is reported as 15100 nM. Work on CCCCCCCCCC[C@H](O)[C@H]1CC[C@H]([C@H]2CC[C@H]([C@H](O)CCCCCCCCCCCCC3C(=O)O[C@@H](C)[C@@H]3O)O2)O1 (stereo partly specified) [LAHERRADURIN] yielded an IC50 of 0.18 nM. Molecule C=C(C)[C@H]1Cc2c(ccc3c2O[C@@H]2COc4cc(OC)c(OC)cc4[C@@H]2C3=O)O1 [ROTENONE] has an IC50 of 5.1 nM. In the case of C=C1C[C@@H]2[C@]3(C)C(=C(O)C(=O)[C@@]2(C)[C@]2(C(=O)OC)C(=O)O[C@H](C)C(=O)[C@@]12C)C(C)(C)C(=O)C[C@@H]3O [terretonin E], the IC50 is reported as 3900 nM. For C=C1C[C@@H]2[C@@]3(C)C=CC(=O)C(C)(C)C3=C(O)C(=O)[C@@]2(C)[C@]2(C(=O)OC)C(=O)O[C@H](C)C(=O)[C@@]12C [terretonin F], the IC50 was 2970 nM.

Species: Bos taurus
Assay: as §1
For O=c1ccn([C@@H]2O[C@H](CO)[C@@H](O)[C@H]2O)c(=O)[nH]1, the Activity was “inactive”.
